# Measured values as given in US8710073B2, “Anti-infective derivatives, method for the production thereof, pharmaceutical compositions containing same and uses of said derivatives in treatment” (Centre National de la Recherche Scientifique (C.N.R.S.), priority 2008, dated 2014).
# How the values were obtained:
# [1] = molecular target: InhA enoylreductase (Mycobacterium tuberculosis, UniProt P9WGR1); test: InhA enoylreductase activity inhibition test (NADH disappearance at 340 nm); format: biochemical; conditions: read-out: InhA inhibition percentage; for inhibition at 10 µM: inhibitor concentration 10 μM, preincubation time 5 min
# Method: The InhA protein was expressed in E. coli after cloning the inhA gene in a plasmidic vector of the pET type. Growing the resulting strain and inducing expression of the inhA gene with 1 mM IPTG (isopropyl β-D-thiogalactoside) leads to the production of water-soluble InhA protein at approximately 28.5 KDa (28,368 Da) (monomeric) which is purified by standard protein purification techniques. The enzyme is present in the form of a tetramer in solution and is kept in 50 mM Hepes buffer, 50% glycerol at −20° C.
# The InhA enoylreductase activity is monitored by UV spectrometry, by monitoring the disappearance of the signal of the reduced cofactor NADH at 340 nm as a function of time. The percentage inhibition is calculated by subtracting from 100 the ratio of the initial speeds (V) measured during kinetics with and without inhibitor, multiplied by 100:% inhibition=100−(Vinhib/Vblank*100). The initial speed is measured by drawing the tangent to the curve DO=f(time) at time zero.
# The enzymatic reaction is carried out in a final volume of 100 μl (in a quartz vessel, optical path 1 cm). The absorption of each reaction mixture is determined with a UVIKON 293 spectrophotometer (Bio-Tek Kontron Instruments) connected to a thermostatically controlled bath which makes it possible to maintain the temperature of the vessel at 25° C. A baseline is produced during preincubation immediately before measurements begin. The measurements are carried out over 3 min after a preincubation of 5 min or 2 h.
# The preincubation is carried out in 90 μl (total volume) of a solution of PIPES buffer 30 mM, NaCl 150 mM, pH=6.8 at 25° C. containing 100 nM of InhA, 100 μM, 20 μM or 10 μM of the compound to be tested (or 500 nM of the pool of INH-NAD adducts constituting the control inhibitors) and 200 μM of NADH. After 5 min or 2 h of preincubation, the addition of 35 μM of the substrate 2-trans-decenoyl-CoA initiates the reaction. […]
# [2] = test system: Corynebacterium glutamicum; test: Growth inhibition of Corynebacterium glutamicum, MTT test
# Method: The Corynebacterium glutamicum strain is cultivated in a BHI (Brain-Heart Infusion) medium at 30° C. with stirring at 200 rpm. The DO of the culture is measured directly and set to a value of 0.002-0.003 by dilution in the LB culture medium. C. glutamicum also grows in the LB medium, and this is used instead of BHI, which is strongly coloured and interferes with the DO reading at 570 nm.
# The stock solutions are prepared in DMSO at a concentration 100 times greater than the highest concentration to be tested.
# The test is carried out in the same way as the test on M. smegmatis.
# The tests are carried out on 96-well NUNC microplates (Merck-eurolab). All the concentrations were tested at least twice.
# Each well contains 100 μl of compound in solution in the culture medium (LB with 1% final DMSO). Subsequently, 100 μl of bacterial suspension having DO 0.002 at 650 nm are added.
# The plate is sealed using parafilm and incubated at 30° C. for C. glutamicum. After two hours of incubation, 50 μl of a 1 mg/ml solution of tetrazolium salt (MTT) are added to each well. After one hour of incubation at 30° C. for C. glutamicum, 100 μl of lysis buffer are added to each well and the plate is left with stirring at ambient temperature until the solution is fully homogeneous.
# The optical density is measured at 570 nm with a μQuant 96-well microplate spectrophotometer, Bio-tek Instruments, Inc.
# Chain of InhA enoylreductase (P9WGR1 whole entry, looked up): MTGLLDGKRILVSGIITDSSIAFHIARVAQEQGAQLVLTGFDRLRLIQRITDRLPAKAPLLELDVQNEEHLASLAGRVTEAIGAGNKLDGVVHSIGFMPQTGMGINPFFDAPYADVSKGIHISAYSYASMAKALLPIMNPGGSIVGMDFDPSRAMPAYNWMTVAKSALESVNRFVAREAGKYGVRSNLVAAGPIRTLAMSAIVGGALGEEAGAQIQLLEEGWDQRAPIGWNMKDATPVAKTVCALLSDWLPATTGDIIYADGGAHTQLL
smiles,measurement,setting,value
"CCCCCCCCCCCCOc1cccc(C2(O)NC(=O)c3cnccc32)c1 (centres unmarked) [Example 2, 1-(3-dodecyloxyphenyl)-1-hydroxy-1,2-dihydropyrrolo[3,4-c]pyridin-3-one]",inhibition at 100 µM,"[1]; inhibitor concentration 100 μM, preincubation time 2 h (*)",80%
"CCCCCCCCCCCCc1cccc(C2(O)NC(=O)c3c[n+](CC(=O)OCC)ccc32)c1 (centres unmarked) [Example 3, 1-(3-dodecylphenyl)-5-[2-(ethyloxy)-2-oxoethyl]-1-hydroxy-3-oxo-1,2-dihydropyrrolo[3,4-c]pyridinium bromide]",inhibition at 10 µM,[1],19%
"CCCCCCCCCCCCc1cccc(C(=O)C2C=CN(CC(=O)OCC)C=C2C(N)=O)c1 (centres unmarked) [Example 4, ethy 3-aminocarbonyl-[4-(3-dodecylbenzoyl)-1,4-dihydro-pyridin-1-yl]acetate]",inhibition at 10 µM,[1],25%
NNC(=O)c1ccncc1 [Isoniazide],IC50,"[2]; Corynebacterium glutamicum, read-out: CI50 (concentration corresponding to 50% inhibition) on the bacterial strain C. glutamicum",> 5 mM
same,activity on C. glutamicum,[2]; at 5 mM,does not exhibit any activity
